This is an account of results in patent US9216999B2, “Substituted pyrrolo[2,3-h][1,6]naphthyridines and compositions thereof as JAK inhibitors” (priority 2011, dated 2015).

Bounds are passed on as bounds.

The target of one assay is JAK2 (Homo sapiens (Human), UniProt O60674). As to the kind of experiment: JAK2 enzyme assay (Assay Example^b 1).
The target in a further assay is JAK3 (Homo sapiens (Human), UniProt P52333). As to the kind of experiment: JAK3 enzyme assay (Assay Example^b 1).
Another assay deals with JAK1 (Homo sapiens (Human), UniProt P23458). As to the kind of experiment: JAK1 enzyme assay (Assay Example^b 1).
The next assay addresses Tyk2 (Homo sapiens (Human), UniProt P29597). As to the kind of experiment: Tyk2 enzyme assay (Assay Example^b 1).
For assay [1] the following is noted: clinical tests; cited from earlier work.
For assay [2] the following is noted: monkey model of kidney transplantation; cited from earlier work.
For assay [3] the following is noted: clinical tests; cited from earlier work. This is another data set of the same source.
The conditions of assay [4]: murine asthma model; cited from earlier work.
Where [5] appears, read: IC50 (μM) JAK2, Table^b 80, ATP 100 μM.
Where [6] appears, read: IC50 (μM) JAK3, Table^b 80, ATP 100 μM.
The mark [7] stands for this setting: IC50 (μM) JAK1, Table^b 80, ATP 100 μM.
Setting [8] is: IC50 (μM) TYK2, Table^b 80, ATP 100 μM.
Where [9] appears, read: IC50 (μM) JAK2, Table^b 79, ATP 100 μM.
Where [10] appears, read: IC50 (μM) JAK3, Table^b 78, ATP 100 μM.
Where [11] appears, read: IC50 (μM) JAK1, Table^b 78, ATP 100 μM.
Where [12] appears, read: IC50 (μM) TYK2, Table^b 79, ATP 100 μM.

Sequence of Tyk2 (P29597 whole entry): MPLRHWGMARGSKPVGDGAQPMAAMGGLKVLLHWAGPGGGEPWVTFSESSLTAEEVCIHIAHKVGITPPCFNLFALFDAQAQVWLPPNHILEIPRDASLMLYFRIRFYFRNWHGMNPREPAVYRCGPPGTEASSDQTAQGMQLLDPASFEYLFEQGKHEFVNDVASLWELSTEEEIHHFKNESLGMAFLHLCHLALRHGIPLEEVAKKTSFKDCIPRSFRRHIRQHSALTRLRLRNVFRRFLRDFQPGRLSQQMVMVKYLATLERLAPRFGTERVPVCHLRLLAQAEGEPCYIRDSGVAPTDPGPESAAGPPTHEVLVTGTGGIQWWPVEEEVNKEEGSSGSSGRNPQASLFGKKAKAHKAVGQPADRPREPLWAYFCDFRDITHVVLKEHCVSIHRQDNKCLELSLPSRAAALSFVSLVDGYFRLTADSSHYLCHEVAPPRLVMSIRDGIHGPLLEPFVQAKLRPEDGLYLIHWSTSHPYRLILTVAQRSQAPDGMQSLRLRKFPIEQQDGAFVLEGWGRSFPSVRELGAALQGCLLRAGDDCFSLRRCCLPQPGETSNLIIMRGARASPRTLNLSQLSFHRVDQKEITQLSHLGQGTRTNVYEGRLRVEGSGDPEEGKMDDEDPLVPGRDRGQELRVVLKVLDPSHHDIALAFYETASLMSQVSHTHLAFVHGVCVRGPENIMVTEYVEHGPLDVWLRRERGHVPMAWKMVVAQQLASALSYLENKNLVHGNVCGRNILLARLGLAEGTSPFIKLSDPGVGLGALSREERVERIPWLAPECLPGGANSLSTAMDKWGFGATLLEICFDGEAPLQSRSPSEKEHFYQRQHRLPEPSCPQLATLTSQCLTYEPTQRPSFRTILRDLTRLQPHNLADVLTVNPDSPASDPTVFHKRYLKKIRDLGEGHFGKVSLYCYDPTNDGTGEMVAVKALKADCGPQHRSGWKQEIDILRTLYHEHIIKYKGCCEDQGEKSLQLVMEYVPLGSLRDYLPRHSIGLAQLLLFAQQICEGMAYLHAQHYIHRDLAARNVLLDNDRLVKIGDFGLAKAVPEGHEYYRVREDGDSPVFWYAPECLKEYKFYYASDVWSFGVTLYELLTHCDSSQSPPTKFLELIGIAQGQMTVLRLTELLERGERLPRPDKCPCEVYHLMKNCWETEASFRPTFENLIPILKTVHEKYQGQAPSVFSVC
Sequence of JAK3 (P52333 whole entry): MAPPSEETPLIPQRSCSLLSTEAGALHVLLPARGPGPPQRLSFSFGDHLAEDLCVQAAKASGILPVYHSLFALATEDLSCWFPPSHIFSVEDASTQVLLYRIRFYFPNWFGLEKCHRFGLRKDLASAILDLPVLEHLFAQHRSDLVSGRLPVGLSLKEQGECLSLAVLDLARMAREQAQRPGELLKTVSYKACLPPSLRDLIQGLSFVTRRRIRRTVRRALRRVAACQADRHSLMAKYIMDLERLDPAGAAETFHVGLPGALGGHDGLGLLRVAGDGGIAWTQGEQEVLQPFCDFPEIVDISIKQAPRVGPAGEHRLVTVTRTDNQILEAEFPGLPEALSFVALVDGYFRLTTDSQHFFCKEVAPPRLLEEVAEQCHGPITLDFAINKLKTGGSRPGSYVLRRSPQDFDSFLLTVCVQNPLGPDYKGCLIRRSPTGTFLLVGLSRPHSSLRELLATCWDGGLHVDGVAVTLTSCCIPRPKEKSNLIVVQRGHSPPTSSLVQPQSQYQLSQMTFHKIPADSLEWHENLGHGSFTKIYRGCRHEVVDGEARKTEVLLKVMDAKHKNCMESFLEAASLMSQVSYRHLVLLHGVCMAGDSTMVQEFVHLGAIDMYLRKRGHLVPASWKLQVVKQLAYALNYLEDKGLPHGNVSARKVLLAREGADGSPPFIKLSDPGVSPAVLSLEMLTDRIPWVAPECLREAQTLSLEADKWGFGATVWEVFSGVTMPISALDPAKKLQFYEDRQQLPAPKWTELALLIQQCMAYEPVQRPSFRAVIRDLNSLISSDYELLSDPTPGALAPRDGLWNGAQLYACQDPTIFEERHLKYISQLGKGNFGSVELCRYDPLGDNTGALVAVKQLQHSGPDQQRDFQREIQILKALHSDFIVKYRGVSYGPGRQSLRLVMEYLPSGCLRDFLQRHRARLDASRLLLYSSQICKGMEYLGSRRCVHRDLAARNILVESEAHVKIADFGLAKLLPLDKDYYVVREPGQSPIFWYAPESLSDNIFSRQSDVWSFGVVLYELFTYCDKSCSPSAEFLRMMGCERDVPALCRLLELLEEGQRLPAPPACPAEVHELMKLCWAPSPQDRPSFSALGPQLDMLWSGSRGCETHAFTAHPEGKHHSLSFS

Turning to `O=C1NCc2cnc3[nH]ccc3c2N1C1CCNCC1` [compound 68], the half-inhibitory concentration (IC50) (usually the concentration needed to halve the response being measured) on JAK2 (setting [5]) is 2.4 µM; at JAK3 (setting [6]) it was 9.1 µM; against JAK1 (setting [7]), 0.5 µM; against Tyk2 (setting [8]) it was over 1 µM.
As for `C[C@@H]1CCN(C(=O)CC#N)C[C@@H]1N(C)c1ncnc2[nH]ccc12` [CP-690,550], the pathology of psoriasis entry in assay [1] was “improved the pathology”. Also, in assay [2], the rejection result is “suppressed rejection”. Also, in assay [3], the “pathology of rheumatoid arthritis” value was “improved the pathology”. Also, the airway inflammation result in assay [4] is reported as “suppressed”.
On to `O=c1[nH]c(=O)n(C2CCN(CCN3CCOCC3)CC2)c2c1cnc1[nH]ccc12` [compound 108], for which the IC50 against JAK2 (IC50 (μM) JAK2, ATP 100 μM) is over 1 µM; at JAK3 (IC50 (μM) JAK3, ATP 100 μM) it was over 1 µM; against JAK1 (IC50 (μM) JAK1, ATP 100 μM), 0.37 µM; against Tyk2 (IC50 (μM) TYK2, ATP 100 μM) it was over 1 µM.
Take `O=c1ncn(C2CCCCC2)c2c1cnc1[nH]ccc12` [compound 13]: the IC50 is 0.56 µM at JAK2 (setting [9]), 1.3 µM against JAK3 (setting [10]), 0.042 µM on JAK1 (setting [11]) and over 1 µM at Tyk2 (setting [12]).
With `O=C(c1ccc(Cl)s1)N1CCC(n2ccc(=O)c3cnc4[nH]ccc4c32)CC1` [compound 87], the IC50 at JAK2 (setting [5]) is 0.38 µM; against JAK3 (setting [6]), over 1 µM; against JAK1 (setting [7]) it was 0.025 µM; against Tyk2 (setting [8]), over 1 µM.
`C[C@@H]1CCN(Cc2cccc(C#N)c2)C[C@@H]1n1ccc(=O)c2cnc3[nH]ccc3c21` (racemic) [compound 42]: the IC50 was 0.15 µM at JAK2 (setting [5]), 0.093 µM against JAK3 (setting [6]), 0.016 µM at JAK1 (setting [7]) and over 1 µM against Tyk2 (setting [8]).
For the molecule `O=c1ccn(C2CCN(Cc3ccc(C(F)(F)F)cc3)CC2)c2c1cnc1[nH]ccc12` [Synthetic Example^b 56, 1-{1-[4-(trifluoromethyl)benzyl]piperidin-4-yl}-1H-pyrrolo[2,3-h][1,6]naphthyridin-4(7H)-one], the IC50 was 0.24 µM on JAK2 (setting [5]), over 1 µM on JAK3 (setting [6]), 0.019 µM on JAK1 (setting [7]) and over 1 µM against Tyk2 (setting [8]).
As for `Cn1c(=O)c2cnc3[nH]ccc3c2n(C2CCCCC2)c1=O` [Synthetic Example^b 138, 1-cyclohexyl-3-methyl-1H-pyrrolo[3′,2′:5,6]pyrido[4,3-d]pyrimidine-2,4(3H,7H)-dione], the IC50 against JAK2 (IC50 (μM) JAK2, ATP 100 μM) was 0.42 µM; at JAK3 (IC50 (μM) JAK3, ATP 100 μM), 0.51 µM; at JAK1 (IC50 (μM) JAK1, ATP 100 μM), 0.04 µM; against Tyk2 (IC50 (μM) TYK2, ATP 100 μM) it was over 1 µM.
`C[C@@H]1CCN(C(=O)CC(F)(F)F)C[C@@H]1n1ccc(=O)c2cnc3[nH]ccc3c21` (racemic) [compound 9]: the concentration for half-maximal inhibition (IC50) against JAK2 (setting [9]) was determined as 0.0094 µM; against JAK3 (setting [10]) it was 0.01 µM; at JAK1 (setting [11]) it was 0.004 µM; against Tyk2 (setting [12]) it was 0.15 µM.
